Data taken from patent US5648244A, “Production, purification, cleavage and use of fusion peptides” (President and Fellows of Harvard College, priority 1993, dated 1997).

System: yeast MATa/sst1Δ strain EY957
Assay: Yeast cell arrest (halo) assay
Assay type: cell-based
Excerpt: The mature wild-type α-Factor peptide is a 13 amino acid pheromone secreted by type […] yeast cells, which upon binding to the α-Factor receptor transmits a signal to an internally located G-protein. Once activated, this G protein triggers a series of intracellular events which lead to cellular differentiation (Elion et al., Cell, 60:649-664 (1990)). In the presence of external α-Factor, yeast cells in the early G1 phase of growth will undergo cell cycle arrest. The bioactivity of each recombinant α-Factor could easily be determined in halo assays as a region of low cell density surrounding a central disk spotted with α-Factor (FIG. 5).
Lawns of yeast MATa/sst1Δ strain EY957 were grown on YPD plates and were tested for α-Factor sensitivity as previously described (Elion et al., Cell, 60:649-664 (1990)). α-Factor peptides were dissolved in DMSO and spotted on sterile 6.5 mm paper disks. Peptide amounts were as follows: Wild-type α-Factor (αFWT)-595 pmoles; αI13-homoserine-lactone (αI13-HSl)-6,850 pmoles; αI13-homoserine (αI13-HS)-1,130 pmoles; αI13-homoserine-amide (αI13-HSA)-2,820 pmoles. The zones of inhibition (z.o.i.) for each peptide is the diameter of the low cell density region. […]
^c The zone of inhibition in mm (z.o.i.) was measured for each series […]

Sequence: WHWLQLKPGQPMY [αFWT, Wild-type α-factor from Sigma, 13 amino acid yeast pheromone, reference compound]
- CA50 (cell arrest50) (amount of peptide per disk required to cause 50% of cell arrest): 74 ± 5 pmol
- z.o.i.int (y-intercept of upper asymptote of zone of inhibition curve) (relative maximal effect, z.o.i. vs pmoles spotted per 6.5 mm disk): 29 mm
